The source of these data is patent publication US10130601B2, “Use of a composition comprising fish oil and juice for the treatment of inflammation” (Smartfish AS, priority 2013, dated 2018).

For experiment [1], the system named is inflammatory genes in peripheral blood mononuclear cells. The experiment can be described thus: Inflammatory gene transcription in peripheral blood mononuclear cells of ALS patients. The format is in vivo, human. The note with it: PBMCs. The text has this: The aim of this study was to investigate in vivo baseline inflammatory gene transcription in peripheral blood mononuclear cells and the effects of tozilizumab (Actemra®) in 11 ALS patients and also measure the disability before and after the therapy comparing the FRS-R score (Functional Rating Scale). Fiala et al., (to be published). The patients were free to take nutritional supplements. Three patients were taking the composition used in the present invention, transcription results are presented in Example 1 together with the results from the ALSFRS-R score (The Amyotrophic Lateral Sclerosis Functional Rating Scale).
In vivo baseline inflammatory gene transcription in peripheral blood mononuclear cells of 11 ALS patients and the effects of tocilizumab (Actemra®) (cytokine antagonist) infusions were studied tocilizumab inhibits global interleukin-6 (IL6) signaling, a key mechanism in chronic rheumatoid disorder.
At base line one half of the ALS subjects had strong inflammatory activation (Group 1) (8 genes up regulated >4-fold, P<0.05 vs. controls) and the other half (Group 2) had weak activation (Group 2).

Experiment [2] is described as follows: ALSFRS-R score (self-reported) in ALS patients. The format is in vivo, human. An excerpt: Patients in the study self-reported the ALSFRS-R score. The Amyotrophic Lateral Sclerosis Functional Rating Scale (ALSFRS-R) is a score from 0-48 which assesses disability in patients with MND. It was developed by Cedarbaum and colleagues (Cedarbaum J M. The ALSFRS-R: a revised ALS functional rating scale that incorporates assessments of respiratory function. BDNF ALS Study Group (Phase III). J Neurol Sci 1999; 169: 13-21). There are twelve questions, some asking about daily activities and how much help a patient needs with them, and some about specific symptoms.
1 for 8 months, no. 2 for 2 months, no. 6 for 4 months, no 7 for 5 months, and no. 11 for 4 months (Table 1). […] 1: 2.6 loss to 0.4 loss, no. 6: from 0.7 loss to 1 point gain, no. 11: from 3.5 loss to 0.5 loss. Said three patients were the patients receiving the composition of the present invention.

As to tocilizumab [Actemra], the “regulation of inflammatory genes after infusions” value in experiment [1] (ALS patients of Group 1 (strong inflammation)) is given as “down regulation”; in experiment [1] (ALS patients of Group 2 (weak inflammation)), “up regulation”. For the same substance, the “FRS-R change After Actemra” value is −0.4 points/mo in experiment [2] (patient #1, spinal ALS, Group 1, before −2.6, treated 8 months, also took the composition); −0.75 points/mo in experiment [2] (patient #2, spinal ALS, Group 1, before −1.3, treated 2 months); “+1.0 points/mo” in experiment [2] (patient #6, spinal ALS, Group 2, before −0.7, treated 4 months, also took the composition); −2.0 points/mo in experiment [2] (patient #7, spinal ALS, Group 2, before −0.37, treated 5 months); −0.5 points/mo in experiment [2] (patient #11, spinal ALS, Group unknown, before −3.5, treated 4 months, also took the composition).
